Legend:
Assay type in all cases: in vivo
Plutella xylostella = assay: Action against Plutella xylostella caterpillars (spray on young cabbage plants); settings: 72 h, 12.5 ppm spray mixture, 10 caterpillars in the first stage, 3 days later, read-out: percentage reduction in population and percentage reduction in feeding damage (% activity)
Method: After the spray-coating has dried, the cabbage plants are populated with 10 caterpillars of Plutella xylostella in the first stage and placed in a plastics container. Evaluation is made 3 days later. The percentage reduction in population and the percentage reduction in feeding damage (% activity) are determined by comparing the number of dead caterpillars and the feeding damage on the treated plants with that on the untreated plants.

Spodoptera littoralis = assay: Action against Spodoptera littoralis (foliar spray on young soybean plants); settings: 72 h, 12.5 ppm spray mixture, 10 caterpillars in the first stage, 3 days later, read-out: percentage reduction in population and percentage reduction in feeding damage (% activity)
Method: 3 days later, the percentage reduction in population and the percentage reduction in feeding damage (% activity) are determined by comparing the number of dead caterpillars and the feeding damage on the treated plants with that on untreated plants.

Tetranychus urticae = assay: Action against Tetranychus urticae (spray on young bean plants); settings: 144 h, 12.5 ppm spray mixture, mixed population, 6 days at 25° C., read-out: percentage reduction in population (% activity)
Method: The plants are incubated for 6 days at 25° C. and subsequently evaluated. The percentage reduction in population (% activity) is determined by comparing the number of dead eggs, larvae and adults on the treated plants with that on untreated plants.

| SMILES | inhibition at 12.5 ppm (Plutella xylostella) [%] | inhibition at 12.5 ppm (Spodoptera littoralis) [%] | inhibition at 12.5 ppm (Tetranychus urticae) [%] |
| --- | --- | --- | --- |
| CCC(C)[C@H]1O[C@]2(C=C[C@@H]1C)C[C@@H]1C[C@@H](C/C=C(\C)[C@@H](OC3C[C@H](OC)[C@@H](OC4C[C@H](OC)[C@H](OCOCCOC)[C@H](C)O4)[C@H](C)O3)C(C)/C=C/C=C3\CO[C@@H]4[C@H](O)C(C)=C[C@@H](C(=O)O1)[C@]34O)O2 (stereo partly drawn) [Compound 2.8, 4″-epi-O-(2-methoxyethoxymethyl)-Avermectin B1] | > 80 | – | – |
| CCC(C)[C@H]1O[C@]2(C=C[C@@H]1C)C[C@@H]1C[C@@H](C/C=C(\C)[C@@H](OC3C[C@H](OC)[C@@H](OCOCCN)[C@H](C)O3)C(C)/C=C/C=C3\CO[C@@H]4[C@H](O)C(C)=C[C@@H](C(=O)O1)[C@]34O)O2 (stereo partly drawn) [Compound 3.19] | – | > 80 | > 80 |
